The record followed here is EP4582413A1, “ARYLTETRAHYDROPYRIDINE COMPOUND AND PEST CONTROL AGENT” (priority 2022, dated 2024).

Common to all, as to assay type: in vivo
The test system of data set [1] is kennel ticks (Rhipicephalus sanguineus). Kind of data set: Effect test for kennel ticks. The settings on record: 10 µg/cm^2 thin film in glass container, protonymphs, two days, 25°C; for mortality at 10 µg/cm2: Rhipicephalus sanguineus, 48 h, read-out: death rate. As for the experimental part:
In 1 ml of acetone, 1 mg of the presently invented compound was dissolved to prepare a chemical solution having a concentration of 1000 ppm. The bottom surface and side surface of each glass container having an inner wall surface area of 25 cm^2 were coated with 250 µl of the chemical solution, and acetone was then volatilized to form a thin film of the compound on the inner wall of the glass container.
Into each of the treated glass containers, five kennel ticks (Rhipicephalus sanguineus) protonymphs (mixed-sex) were released, and the glass containers were capped and accommodated in a thermostatic room at 25°C.

In data set [2] the test system is cat fleas (Ctenocephalides felis). Kind of data set: whole plant or invertebrate. To be noted: 72 h, read-out: death rate. The essentials:
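Glass containers (25 cm² inner surface) were coated with 250 µl of a 1000 ppm acetone solution, and the acetone was evaporated to leave a dry film. Five mixed-sex adult fleas were confined per container at 25°C. Mortality was scored after 3 days.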

Data set [3] relates to western flower thrips (Frankliniella occidentalis). Description: Insecticidal activity against western flower thrips. To be noted: Frankliniella occidentalis, 48 h; 500 ppm chemical solution sprinkled (2.5 mg/cm^2), larvae on common bean leaf, after 2 days; read-out: death rate. The essentials: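 Bean leaf squares on wet filter paper inoculated with 20 larvae. Compound emulsion diluted with spreader-containing water to 500 ppm and sprayed at 2.5 mg/cm^2 by rotary tower. Run in duplicate.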

Data set [4] deals with diamondback moths (Plutella xylostella). Kind of data set: Insecticidal test for diamondback moths. The settings on record: Plutella xylostella, 144 h; 500 ppm chemical solution, leaves soaked, third-instar larvae, six days, 25°C; read-out: death rate. The essentials:
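Leaves dipped about 10 s in a 500 ppm aqueous dilution of an emulsion formulation with spreader, then air-dried. Five third-instar larvae released per dish and held at 25 °C. Tested in duplicate.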

The subject of data set [5] is brown rice planthoppers (Nilaparvata lugens). Description: Insecticidal test for brown rice planthoppers. The settings on record: Nilaparvata lugens, 144 h; 500 ppm chemical solution, rice leaf sheaths soaked, third-instar larvae, six days, 25°C; read-out: death rate. The essentials: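 Rice leaf sheaths dipped ~10 s in 500 ppm compound solution (emulsion diluted in water with spreader), air-dried, then infested with five third-instar larvae per tube at 25 °C. Mortality scored after 6 days, death rate calculated, in duplicate.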

Data set [6] has as its system green peach aphids (Myzus persicae). Kind of data set: Insecticidal test for green peach aphids. To be noted: Myzus persicae, foliar, 144 h; 500 ppm chemical solution sprinkled (2.5 mg/cm^2), wingless imagoes on leaf disc, six days, 25°C; read-out: death rate. The essentials: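 Four wingless Myzus persicae adults on a 3 cm Chinese olive leaf disc over wet cotton, sprayed one day later with a 500 ppm dilution of a 10% emulsion plus spreader (2.5 mg/cm^2, rotary tower). Dishes were capped and held at 25°C. Run in duplicate.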

As to `O=C(Nc1ccccn1)C1=C(O)CC(c2nc(-c3ccccc3F)no2)NC1=O` (stereo not shown) [3-186], the mortality at 10 µg/cm2 in data set [1] and in data set [2] was at least 50% in each case. The mortality at 500 µg/mL in data set [3], in data set [4] and in data set [5] was at least 90% throughout.

Regarding `O=C(Nc1ccc(F)cc1)C1=C(O)CC(c2ccc(C(F)(F)F)c(-c3cccc(F)c3)c2)NC1=O` (stereo not shown) [1-006], the mortality at 10 µg/cm2 in data set [1] and in data set [2] was at least 50% in each case. The mortality at 500 µg/mL in data set [4] and in data set [6] was at least 90% each time.

On to `O=C(Nc1ccc(F)cn1)C1=C(O)CC(c2nc(-c3ccc(O)nc3)no2)NC1=O` (stereo not shown) [3-101], for which, in data set [1], the death rate was at least 50%.

As to `O=C(Nc1c(F)cccc1F)C1=C(O)CC(c2nc(-c3ccncc3F)no2)NC1=O` (stereo not shown) [3-166], the mortality at 10 µg/cm2 in data set [1] and in data set [2] was at least 50% each time. Also, the mortality at 500 µg/mL in data set [4], in data set [6] and in data set [5] was at least 90% throughout.

For the molecule `O=C(Nc1ccc(F)cc1)C1=C(O)CC(c2ccc(C(F)(F)F)c(-c3ccc(F)cc3)c2)NC1=O` (stereo not shown) [1-007], the mortality at 10 µg/cm2 in data set [1] and in data set [2] was at least 50% throughout. The mortality at 500 µg/mL in data set [3], in data set [4] and in data set [6] was at least 90% each time.

For the molecule `O=C(Nc1nccs1)C1=C(O)CC(c2cnc(C(F)(F)F)c(-c3ccc(F)nc3)c2)NC1=O` (stereo not shown) [2-184], the mortality at 10 µg/cm2 in data set [2] is at least 50%. In addition, the mortality at 500 µg/mL in data set [3], in data set [4], in data set [6] and in data set [5] was at least 90% throughout.
